Results reported in patent US10577373B2, “TYK2 inhibitors and uses thereof” (Nimbus Lakshmi, Inc., priority 2017, dated 2020).
Where two headings read alike, the source gives them in different places.

Legend:
[1] = test system: IL-12 induced STAT4 phophorylation mediated by Tyk2/JAK2 (heterodimeric complex); assay: IL-12 Induced pSTAT4 in Human PBMC; assay type: cell-based; details: 1.7 ng/mL IL-12
From the text: The IL-12 Induced pSTAT4 assay evaluates the inhibition of IL-12 induced STAT4 phophorylation mediated by Tyk2/JAK2 (heterodimeric complex).

[2] = test system: GM-CSF induced STAT5 phosphorylation mediated by the JAK2/JAK2 homdimeric complex; assay: GM-CSF Induced pSTAT5 in Human PBMC
From the text: Human PBMC are isolated from buffy coat and are stored frozen for assays as needed.

[3] = Homo sapiens, PBMC, 20 min, read-out: PBMC_GMCSF_pSTAT5 IC50, human PBMC, GM-CSF 5 ng/mL for 20 minutes, pSTAT5
[4] = read-out: PBMC_GMCSF_pSTAT5 IC50, human PBMC, GM-CSF 5 ng/mL for 20 minutes, pSTAT5

SMILES | IC50 [1] | IC50 [2, 3] | IC50 [2, 4] | IC50 ([2]; Homo sapiens, PBMC, 20 min, read-out: PBMC_GMCSF_pSTAT5 IC50)
CNc1cc(Nc2cc(F)cn(-c3cnn(C)c3)c2=O)nc2c(C(=O)NC3CC3)cnn12 [I-380] | < 100 nM | > 12500 nM | – | –
CNc1cc(Nc2cccnc2OC2CC2)nc2c(C(=O)NC3CC3)cnn12 [I-215, 5-((2-cyclopropoxypyridin-3-yl)amino)-N-cyclopropyl-7-(methylamino) pyrazolo[1,5-a]pyrimidine-3-carboxamide] | < 100 nM | > 50000 nM | – | –
[2H]C([2H])([2H])Oc1ncccc1Nc1cc(NC)n2ncc(C(=O)N[C@H]3C[C@H](O)C3)c2n1 [I-321, N-((1r,3r)-3-hydroxycyclobutyl)-5-((2-(methoxy-d3)pyridin-3-yl)amino)-7-(methylamino)pyrazolo[1,5-a]pyrimidine-3-carboxamide] | < 100 nM | > 2500 nM | – | –
CNc1cc(Nc2cc(C)cn(-c3cnn(C)c3)c2=O)nc2c(C(=O)N[C@H]3C[C@H]3F)cnn12 [I-235] | < 100 nM | > 2500 nM | – | –
CNc1cc(Nc2cccc(N3CCOC3=O)n2)nc2c(C(=O)NC3CCC3)cnn12 [I-105] | < 100 nM | > 12500 nM | – | –
CNc1cc(Nc2cccn([C@H]3CC[C@@H](OC)CC3)c2=O)nc2c(C(=O)N[C@H]3C[C@H]3F)cnn12 [I-357] | < 100 nM | > 2500 nM | – | –
CNc1cc(Nc2cccn([C@H]3[C@@H]4COC[C@@H]43)c2=O)nc2c(C(=O)N[C@@H]3C[C@@H]3F)cnn12 [I-811] | < 100 nM | > 50000 nM | – | –
CNc1cc(Nc2cc(Cl)cn(-c3cnc(C(=O)N(C)C)cn3)c2=O)nc2c(C(=O)NC3CC3)cnn12 [I-318] | < 100 nM | > 2500 nM | – | –
CNc1cc(Nc2cc(F)cn([C@H]3CCCOC3)c2=O)nc2c(C(=O)N[C@H]3C[C@H]3F)cnn12 [I-559] | < 100 nM | > 50000 nM | – | –
CNc1cc(Nc2cccn([C@H]3CC[C@H](OC)CC3)c2=O)nc2c(C(=O)NC[C@H](C)CO)cnn12 [I-829] | < 100 nM | > 50000 nM | – | –
CNc1cc(Nc2cccn(-c3cc(C)nn3C)c2=O)nc2c(C(=O)NC3CCC3)cnn12 [I-342] | < 100 nM | > 12500 nM | – | –
CNc1cc(Nc2cccn(-c3cnn(CC4CCOCC4)c3)c2=O)nc2c(C(=O)NC3CC3)cnn12 [I-406] | 100 to 500 nM | > 12500 nM | – | –
CNc1cc(Nc2cccn(C3CCCN(CCF)C3)c2=O)nc2c(C(=O)N[C@@H]3C[C@@H]3F)cnn12 (stereo partly shown) [I-849] | 100 to 500 nM | > 50000 nM | – | –
CNc1cc(Nc2cc(F)cnc2OCCOC)nc2c(C(=O)NC3CCC3)cnn12 [I-290] | < 100 nM | > 2500 nM | – | –
CNc1cc(Nc2cccn([C@H]3CC[C@H](OC)CC3)c2=O)nc2c(C(=O)N[C@@H]3CC[C@@H]3O)cnn12 [I-560] | < 100 nM | > 2500 nM | – | –
CNc1cc(Nc2cc(F)cn(-c3ccc(C)nn3)c2=O)nc2c(C(=O)N[C@H]3C[C@H]3F)cnn12 [I-198] | < 100 nM | > 2500 nM | – | –
CNc1cc(Nc2cc(C)cn(-c3cnn(C)c3)c2=O)nc2c(C(=O)NC3CC3)cnn12 [I-233] | < 100 nM | > 50000 nM | – | –
CNc1cc(Nc2cccnc2OC)nc2c(C(=O)N[C@H]3CC[C@H]3O)cnn12 [I-429] | < 100 nM | > 50000 nM | – | –
CNc1cc(Nc2cccnc2OC2CC2)nc2c(C(=O)NC3CCC3O)cnn12 (stereo in doubt) [I-366, 5-((2-cyclopropoxypyridin-3-yl)amino)-N-((1R,2R)-2-hydroxycyclobutyl)-7-(methylamino)pyrazolo[1,5-a]pyrimidine-3-carboxamide] | < 100 nM | > 50000 nM | – | –
CCn1cc(Cl)cc(Nc2cc(NC)n3ncc(C(N)=O)c3n2)c1=O [I-35] | < 100 nM | > 300 nM | – | –
CNc1cc(Nc2cc(Cl)cn([C@@H]3CCCN(C)C3)c2=O)nc2c(C(=O)NC3CC3)cnn12 [I-819] | < 100 nM | > 50000 nM | – | –
CNc1cc(Nc2cccnc2OC2CC2)nc2c(C(=O)NCC(C)CO)cnn12 (stereo not shown) [I-435] | 100 to 500 nM | > 50000 nM | – | –

SMILES | IC50 [1] | IC50 [2, 3] | IC50 [2, 4] | IC50 ([2]; Homo sapiens, PBMC, 20 min, read-out: PBMC_GMCSF_pSTAT5 IC50)
CNc1cc(-c2cn(C(C)C)c3ncccc23)nc2c(C(=O)N[C@@H]3COC[C@@H]3O)cnn12 [I-842, N-((3R,4R)-4-hydroxytetrahydrofuran-3-yl)-5-(1-isopropyl-1H-pyrrolo[2,3-b]pyridin-3-yl)-7-(methylamino)pyrazolo[1,5-a]pyrimidine-3-carboxamide] | < 100 nM | > 50000 nM | – | –
CNc1cc(Nc2cc(Cl)cn([C@@H]3CCCOC3)c2=O)nc2c(C(=O)N[C@@H]3C[C@@H]3F)cnn12 [I-773] | < 100 nM | > 12500 nM | – | –
CNc1cc(Nc2cccn(C3CCOCC3)c2=O)nc2c(C(=O)NC3CC3)cnn12 [I-329] | < 100 nM | > 2500 nM | – | –
CNc1cc(Nc2cccn(-c3cc(C)on3)c2=O)nc2c(C(=O)NC3CC3)cnn12 [I-162] | < 100 nM | > 2500 nM | – | –
CNc1cc(Nc2cccn([C@H]3CC[C@H](OC)CC3)c2=O)nc2c(C(=O)NCC(C)(C)CO)cnn12 [I-544] | < 100 nM | > 2500 nM | – | –
[2H]C([2H])([2H])Oc1ncccc1Nc1cc(NC)n2ncc(C(=O)NCC(C)(C)CO)c2n1 [I-347] | < 100 nM | > 50000 nM | – | –
CNc1cc(Nc2cccn(-c3ccc(C4CC4)nn3)c2=O)nc2c(C(=O)NC3CCC3)cnn12 [I-240] | < 100 nM | > 2500 nM | – | –
CNc1cc(Nc2cccc3ocnc23)nc2c(C(=O)N[C@@H]3CC[C@H]3O)cnn12 [I-857] | 100 to 500 nM | – | > 50000 nM | –
CNc1cc(Nc2cccc(N3CCCC3=O)n2)nc2c(C(N)=O)cnn12 [I-47] | < 100 nM | > 300 nM | – | –
CNc1cc(Nc2cc(Cl)cn(C3CCCOC3)c2=O)nc2c(C(=O)NC3CC3)cnn12 (stereo not shown) [I-711] | < 100 nM | > 50000 nM | – | –
CNc1cc(Nc2cc(Cl)cn(-c3ccc(C)nn3)c2=O)nc2c(C(=O)N[C@H]3C[C@H]3F)cnn12 [I-164] | < 100 nM | > 50000 nM | – | –
CNc1cc(Nc2cccnc2OC(C)C)nc2c(C(=O)NC3CCC3)cnn12 [I-145] | 100 to 500 nM | > 50000 nM | – | –
[2H]C([2H])([2H])Nc1cc(Nc2cccnc2OC2CC2)nc2c(C(=O)N[C@@H]3C[C@@H]3F)cnn12 (stereo in doubt) [I-375, 5-((2-cyclopropoxypyridin-3-yl)amino)-N-((1R,2S)-2-fluorocyclopropyl)-7-((methyl-d3)amino)pyrazolo[1,5-a]pyrimidine-3-carboxamide] | < 100 nM | > 50000 nM | – | –
CNc1cc(Nc2cc(Cl)cn(-c3ccn(C4CC4)n3)c2=O)nc2c(C(=O)NC3CC3)cnn12 [I-331] | < 100 nM | > 12500 nM | – | –
CNc1cc(Nc2cc(Cl)cn(C3CCOCC3)c2=O)nc2c(C(=O)N[C@@H]3CC[C@H]3O)cnn12 [I-825] | < 100 nM | > 50000 nM | – | –
CNc1cc(-c2cn(CCN3CCCCC3)c3ncccc23)nc2c(C(=O)N[C@@H]3CC[C@H]3O)cnn12 [I-837] | < 100 nM | > 12500 nM | – | –
CNc1cc(Nc2cccn(-c3cnc(C(C)(C)O)cn3)c2=O)nc2c(C(=O)NC3CCC3)cnn12 [I-95] | < 100 nM | – | – | > 50000 nM
CNc1cc(Nc2cccn(-c3ccccn3)c2=O)nc2c(C(=O)NC3CC3)cnn12 [I-680] | < 100 nM | > 12500 nM | – | –
CNc1cc(-c2c[nH]c3c(C)cc(C)cc23)nc2c(C(N)=O)cnn12 [I-36, 5-(5,7-dimethyl-1H-indol-3-yl)-7-(methylamino)pyrazolo[1,5-a]pyrimidine-3-carboxamide] | < 100 nM | > 12500 nM | – | –
CNc1cc(Nc2cccn([C@H]3CC[C@@H](N4CCOCC4)CC3)c2=O)nc2c(C(=O)NC3CCC3)cnn12 [I-182] | < 100 nM | > 2500 nM | – | –
CNc1cc(Nc2cccc3ocnc23)nc2c(C(=O)N[C@@H]3CC[C@@H]3O)cnn12 [I-770] | < 100 nM | – | > 2500 nM | –
CNc1cc(Nc2cccn(C3CCCCC3)c2=O)nc2c(C(=O)N[C@@H]3CC[C@H]3O)cnn12 [I-943] | < 100 nM | > 50000 nM | – | –
